From patent US10294236B2, “Compounds as rearranged during transfection (RET) inhibitors” (GLAXOSMITHKLINE INTELLECTUAL PROPERTY DEVELOPMENT LIMITED, priority 2014, dated 2019) come the findings set out here.

Data set [1] is described as follows: Physical stability of the crystalline form on exposure to humidity. It counts as physicochemical. Conditions: exposed to 75% RH for five days. The protocol: A suspension of 1-(2-(4-ethoxy-6-oxo-1,6-dihydropyridin-3-yl)-4-methylpyrimidin-5-yl)-3-(5-(1,1,1-trifluoro-2-methylpropan-2-yl)isoxazol-3-yl)urea (493.5 mg) in 12.5 mL of acetone was stirred overnight while cycling the temperature between 40° C. and 5° C. Seeds of Compound A free base anhydrate were added at 5° C. The solids were isolated by vacuum filtration and dried overnight in a vacuum oven at 40° C. to give the title compound as a crystalline solid.

In data set [2] the target is T1, Human RET kinase cytoplasmic domain (Homo sapiens, UniProt P07949).
T1 construct: made in house
T1 sequence (P07949 658-1114): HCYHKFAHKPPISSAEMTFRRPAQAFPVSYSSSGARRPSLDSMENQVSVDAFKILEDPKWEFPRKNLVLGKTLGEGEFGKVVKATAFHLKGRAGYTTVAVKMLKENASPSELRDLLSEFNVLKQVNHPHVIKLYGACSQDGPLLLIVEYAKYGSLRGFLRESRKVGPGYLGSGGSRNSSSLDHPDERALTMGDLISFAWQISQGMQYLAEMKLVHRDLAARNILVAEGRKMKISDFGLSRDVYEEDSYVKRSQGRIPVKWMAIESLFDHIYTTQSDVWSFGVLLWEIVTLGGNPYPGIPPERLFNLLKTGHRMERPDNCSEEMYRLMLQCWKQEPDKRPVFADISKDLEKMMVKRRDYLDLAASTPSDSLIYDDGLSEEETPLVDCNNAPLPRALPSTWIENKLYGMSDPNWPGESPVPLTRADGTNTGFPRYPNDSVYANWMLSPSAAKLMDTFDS
As to the kind of experiment: RET kinase enzymatic assay. The class given is biochemical. The gist of the method:
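GST-RET, 0.2 nM in 2× enzyme mix (HEPES, CHAPS, BSA, DTT), preincubated with inhibitor 30 min at 23 °C. Reaction for 1 h at 23 °C after adding 2× substrate mix: 20 μM ATP, 20 mM MgCl2, 1 μM biotinylated peptide. Single wells per concentration; IC50 from sigmoidal dose-response fit.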

Counter-ions that a name gives are not always drawn.

Turning to `CCOc1cc(=O)[nH]cc1-c1ncc(NC(=O)Nc2cc(C(C)(C)C(F)(F)F)on2)c(C)n1` [Compound A free base anhydrate, 1-(2-(4-Ethoxy-6-oxo-1,6-dihydropyridin-3-yl)-4-methylpyrimidin-5-yl)-3-(5-(1,1,1-trifluoro-2-methylpropan-2-yl)isoxazol-3-yl)urea], the physical stability result in data set [1] is “physically stable”.

On to `CCN1CCN(Cc2cc(F)c(NC(=O)Nc3cnc(-c4c[nH]c(=O)cc4OCCOC)nc3C)cc2C(F)(F)F)CC1` [Example 182, 1-(4-((4-Ethylpiperazin-1-yl)methyl)-2-fluoro-5-(trifluoromethyl)phenyl)-3-(2-(4-(2-methoxyethoxy)-6-oxo-1,6-dihydropyridin-3-yl)-4-methylpyrimidin-5-yl)urea], for which the IC50 in data set [2] was < 100 nM.

As to `CCOc1cc(-c2ncc(NC(=O)Nc3cc(C(F)(F)F)c(CN4CCN(CC)CC4)cc3F)cn2)c[nH]c1=O` [Example 183, 1-(2-(5-Ethoxy-6-oxo-1,6-dihydropyridin-3-yl)pyrimidin-5-yl)-3-(4-((4-ethylpiperazin-1-yl)methyl)-2-fluoro-5-(trifluoromethyl)phenyl)urea trihydrochloride], in data set [2], the IC50 was < 100 nM.

Consider `COCCOc1cc(-c2ncc(NC(=O)Nc3cc(C(F)(F)F)c(CN4CCN(C)CC4)cc3F)c(C)n2)c[nH]c1=O` [Example 184, 1-(2-Fluoro-4-((4-methylpiperazin-1-yl)methyl)-5-(trifluoromethyl)-phenyl)-3-(2-(5-(2-methoxyethoxy)-6-oxo-1,6-dihydropyridin-3-yl)-4-methylpyrimidin-5-yl)urea trihydrochloride], for which the IC50 in data set [2] was < 100 nM.

Regarding `CCOc1cc(-c2ncc(NC(=O)Nc3ccc(CC(C)(C)N)c(C(F)(F)F)c3)c(C)n2)c[nH]c1=O` [Example 185, 1-(4-(2-Amino-2-methylpropyl)-3-(trifluoromethyl)phenyl)-3-(2-(5-ethoxy-6-oxo-1,6-dihydropyridin-3-yl)-4-methylpyrimidin-5-yl)urea], the IC50 in data set [2] is < 100 nM.

On to `CCOc1cc(=O)[nH]cc1-c1ncc(NC(=O)Nc2ccc(CC(C)(C)N)c(C(F)(F)F)c2)c(C)n1` [Example 186, 1-(4-(2-Amino-2-methylpropyl)-3-(trifluoromethyl)phenyl)-3-(2-(4-ethoxy-6-oxo-1,6-dihydropyridin-3-yl)-4-methylpyrimidin-5-yl)urea], for which the IC50 in data set [2] was < 100 nM.

For the molecule `COCCOc1cc(=O)[nH]cc1-c1ncc(NC(=O)Nc2cc(C(=O)NCCN(C)C)cc(C(F)(F)F)c2)c(C)n1` [Example 187, N-(2-(dimethylamino)ethyl)-3-(3-(2-(4-(2-methoxyethoxy)-6-oxo-1,6-dihydropyridin-3-yl)-4-methylpyrimidin-5-yl)ureido)-5-(trifluoromethyl)benzamide], the half-maximal inhibitory concentration (IC50) in data set [2] was < 100 nM.

As for `CCOc1cc(-c2ncc(NC(=O)Nc3cc(C(F)(F)F)c(CN(C)C)cc3F)cn2)c[nH]c1=O` [Example 188, 1-(4-((Dimethylamino)methyl)-2-fluoro-5-(trifluoromethyl)phenyl)-3-(2-(5-ethoxy-6-oxo-1,6-dihydropyridin-3-yl)pyrimidin-5-yl)urea dihydrochloride], the half-inhibitory concentration (IC50) in data set [2] was < 100 nM.

In the case of `CCOc1cc(-c2ncc(NC(=O)Nc3cc(C(=O)NCCN(C)C)cc(C(F)(F)F)c3)cn2)c[nH]c1=O` [Example 189, N-(2-(Dimethylamino)ethyl)-3-(3-(2-(5-ethoxy-6-oxo-1,6-dihydropyridin-3-yl)-pyrimidin-5-yl)ureido)-5-(trifluoromethyl)benzamide], in data set [2], the IC50 is < 100 nM.

On to `CCOc1cc(-c2ncc(NC(=O)Nc3cc(C(F)(F)F)c(CN(C)C)cc3F)c(C)n2)c[nH]c1=O` [Example 190, 1-(4-((Dimethylamino)methyl)-2-fluoro-5-(trifluoromethyl)phenyl)-3-(2-(5-ethoxy-6-oxo-1,6-dihydropyridin-3-yl)-4-methylpyrimidin-5-yl)urea dihydrochloride], for which the 50% inhibitory concentration (IC50) in data set [2] is < 100 nM.

Consider `CCOc1cc(=O)[nH]cc1-c1ncc(NC(=O)Nc2cc(C(F)(F)F)c(CN3CCN(CC)CC3)cc2F)c(C)n1` [Example 191, 1-(2-(4-Ethoxy-6-oxo-1,6-dihydropyridin-3-yl)-4-methylpyrimidin-5-yl)-3-(4-((4-ethylpiperazin-1-yl)methyl)-2-fluoro-5-(trifluoromethyl)phenyl)urea trihydrochloride], for which the half-inhibitory concentration (IC50) in data set [2] is < 100 nM.

What is called IC50 is the concentration that gives 50% inhibition.
